# From US20120003191A1, “VALPROIC ACID, DERIVATIVES, ANALOGUES, AND COMPOSITIONS INCLUDING SAME AND METHODS FOR THEIR THERAPEUTIC USE” (priority 2009, published 2012)
# How the values were obtained:
# [1] = mice; cited from earlier work
# mTOR = assay: Western blotting of activated mTOR in α7+/− myotubes; format: cell-based, mouse; conditions: VPA for 48 or 72 hours
# Method: (§1) α7^+/− myogenic cells were cultured on 1% gelatin-coated plastic plates in Ham's F-10 growth medium (20% FBS, 0.5% chick embryo extract, 5 ng/ml bFGF, 2 mM glutamine, 100 U/ml penicillin and 100 μg/ml streptomycin). After six passages, cells were grown in DMEM containing 20% FBS, 0.5% chick embryo extract, 2 mM glutamine, 100 U/ml penicillin and 100 μg/ml streptomycin. Differentiation was induced by switching the medium to DMEM containing 2% horse serum and antibiotics when cells attained 90% confluence. After 48 hours of differentiation, 2 mM VPA was added and supplied fresh every 24 hours. Wortmannin was used at 100 nM and added fresh every 24 hours.
# (§2) Cell lysates of differentiating cells on 60 mm dishes were prepared as follows: the cells were washed twice with PBS and 200 μl Triton X-100 lysis buffer (2% Triton X-100, 20 mM Tris-Cl, pH 7.4, 150 mM NaCl, 1 mM EDTA, 1 mM EGTA, 2.5 mM NaPPi, 1 mM β-glycerophosphate, 1 mM sodium vanadate, 1:200 Protease Inhibitor Cocktail (EMD Chemicals, San Diego, Calif.) and 1 mM PMSF) were added. […] Protein concentrations were determined by the Bradford assay. […] The supernatants were collected and protein concentrations were determined spectrophotometrically at OD260 and OD280. […] ImageQuant analysis software (Molecular Dynamics, Sunnyvale, Calif.) was used to quantify band intensity.
# α7A integrin = assay: Western blotting of α7A integrin in α7+/− myotubes; format: cell-based, mouse; conditions: 2 mM VPA for 72 hours
# Method: as §1, §2
# α7B integrin = assay: Western blotting of α7B integrin in α7+/− myotubes; format: cell-based, mouse; conditions: 2 mM VPA for 72 hours
# Method: as §1, §2
# α7+/− myotubes = assay: Quantification of apoptosis in myotubes (TUNEL assay); format: cell-based, mouse
# Method: Differentiating cultures of α7^+/− cells on 1% gelatin-coated Lab-Tek 8-well chamber slides (Nalge-Nunc International) were exposed to 2 mM VPA on day two of differentiation, and fresh VPA in differentiation medium was added every 24 hours. On day eight of differentiation, the DeadEnd Fluorometric TUNEL assay (Promega) was used to label apoptotic nuclei, following the manufacturer's instructions. The numbers of clusters of apoptotic nuclei in each chamber were counted.
# α7 integrin = assay: FDG based β-galactosidase fluorescent assay (reporter for α7 expression); format: cell-based, mouse; conditions: 2 mM VPA, 48 hours, α7+/− myotubes from day two of differentiation
# Method: The α7^+/− mice were derived as reported in Flintoff-Dye, et al. Role for the alpha7beta1 integrin in vascular development and integrity, Dev. Dyn. 234:11-21 (2005). These mice were engineered to contain the LacZ gene driven by the α7 integrin promoter. Skeletal muscles from the hind limbs (including gastrocnemius-soleus, quadriceps and tibialis anterior) of a 3-week old α7^+/− mouse were removed under sterile conditions, finely minced in Hank's balanced salt solution (HBSS) and incubated in 5 ml of enzyme solution I consisting of 1.5 U/ml collagenase D (0.15 U/mg powder, from Roche Diagnostics, Indianapolis, Ind.), 2.4 U/ml dispase II (neutral protease, grade II, 0.8 U/mg powder, from Roche Diagnostics) and 2.5 mM calcium chloride for 30 minutes at 37° C. with trituration every 5 minutes. The supernatant was decanted into 5 ml of 20% fetal bovine serum (FBS) (Biomeda Corporation, Foster City, Calif.) in HBSS. Enzyme solution II consisting of 0.6 mg/ml trypsin (stock solution 0.5%, from Invitrogen) in HBSS was added to the remaining muscle fragments, incubated for 30 minutes as above, and the cell suspensions were pooled. […] The fluorescence in each well was quantified using an Analyst plate reader (Molecular Devices, Sunnyvale, Calif.).
smiles,measurement,setting,value
"CCCC(CCC)C(=O)O [VPA, valproic acid]",half-life,[1],about 45 minutes
same,levels of activated mTOR,mTOR,higher levels
same,α7A integrin isoform increase,α7A integrin,2 fold
same,α7B integrin isoform increase,α7B integrin,1.5 fold
same,fewer apoptotic nuclei (TUNEL positive nuclear clusters) compared with control cells,"α7+/− myotubes; 2 mM VPA from day 2 of differentiation, day 6 of treatment",greater than 5 fold
same,"appearance of cultures after day 8 (controls vacuolated, some detachment)","α7+/− myotubes; 2 mM VPA, phase-contrast",appeared relatively normal
same,"β-galactosidase activity (reporter for α7 expression), highest level",α7 integrin,1.4 fold
